Data from patent publication US20110124614A1, “Methods And Compositions For The Treatment of Autoimmune Disorders” (priority 2008, published 2011).
“And” between values parts separate entries of the source, which are not always exact repeats. Identical values can stand only once.

Experiments:
[1] = test system: splenocytes of PD-1KO EAE mice; assay: Ex vivo T cell proliferation to mMOG-35-55, PD-1KO mice; format: in vivo, mouse; settings: G-1 treatment, FIG. 6B
Description: Splenocytes and lymph node cells were harvested ex-vivo from G-1 and E2 implanted mice and cultured in a 96-well flat bottom tissue culture plate at 4×10^5 cells/well in stimulation medium in the presence of APC, irradiated (2500 rad) syngenic thymocytes at a ration of 1:10 (T:APCs) wither with or without mMog 35-55 peptide at varying concentrations. The cells were incubated for 3 days at 37° C. in 7% CO2 and pulsed with 0.5 μCi of [^3H] thymidine (Perkin-Elmer, Boston, Mass.) for the final 18 h of incubation. The cells were harvested onto glass fiber filters, and incorporated radioactivity was measured by a liquid scintillation counter. The cpm values (mean±SD) were calculated from triplicate wells. Stimulation index (SI) was calculated by dividing the experimental cpm by the control cpm.
Splenocytes from placebo and G-1 treatment groups were evaluated for T cell proliferation and cytokine secretion in 48 h supernatants.

[2] = test system: liver, eyes, heart, mammary gland, brain, spleen, kidney, muscle, lung; assay: H&E organ histology in G-1 treated naive mice; format: in vivo, mouse; settings: 1.8 mg G-1 treated naive mice
Text: Treatment with G-1 in viva lacked the “estrogenic effects” of E2.

[3] = test system: cytokine secretion by splenocytes of WT immunized mice; assay: Cytokine secretion of mMog-35-55 stimulated splenocytes, Luminex, WT mice; format: in vivo, mouse; settings: 48 h supernatants
Description: PD-1KO (Dr. […] One week after implantation experimental autoimmune encephalomyelitis (EAE) was induced. Splenocytes were harvested from […] cell proliferation and cytokine secretion in 48 h supernatants. (*P<0.05, or **P<0.01 compared to placebo). Lymph node and spleen cells were cultured at 4×10^6 cells/well in a 24 well flat-bottom culture plate in stimulation medium (RPMI 1640, 1% sodium pyruvate, 1% L-glutamine, 0.4% 2-β-ME, 10% FBS) with 25 μg/ml mMog-35-55 peptide for 48H. Supernatants were then harvested and stored at -80° C. until tested for cytokines. Culture supernatants were assessed for cytokine levels using a Luminex Bio-Plex mouse cytokine assay kit (BioRad, Hercules, Calif.) following the manufacturer's instructions. The following cytokines were determined in a single assay in three separate experiments: IL-1βIFN-γ, TNF-α, IL-2, IL-4, IL-5. IL-6, IL-12, IL-13, and IL-17. […] This cytokine profile was drastically altered in G-1 treated PD-1Ko mice. The decrease of Il-17 and increase of Il-6, Il-10 and IFN-γ production were abolished, whereas the reduction in IL-2 and Il-4 remained. Thus PD-1 was required for […] downregulation of IL-17 but not Il-2 and Il-4, and upregulation of IL-6, Il10 and IFN-γ.

[4] = test system: EAE in GPR30KO female mice; assay: EAE clinical scoring, E2 pellets, GPR30KO mice (Example II); format: in vivo, mouse; settings: E2 treated GPR30KO mice, 2.5 mg/60 day pellet
[5] = test system: EAE in heterozygous (GPR30^+/−) female mice; settings: mouse, in vivo
[6] = Serum E2 level by radioimmunoassay in E2-implanted mice; format: in vivo, mouse; settings: mice with 2.5 mg/60 day release E2 pellets; RIA; FIG. 3
Description: Serum levels of E2 were determined by radioimmunoassay (RIA) after Sephadex LH-20 column chromatography (GE Healthcare Life Sciences, Piscataway, N.J.). Representative animals were bled by cardiac puncture, and the blood was allowed to clot at 4° C. overnight. The samples were centrifuged, and the sera were collected and stored at −80° C. until hormone analysis was performed. All samples were analyzed in a single assay for each hormone.

[7] = test system: CNS infiltration and demyelination in GPR30KO EAE mice; assay: Spinal cord histology (H&E, LFB-PAS), GPR30KO EAE mice; format: in vivo, mouse; settings: E2-treated GPR30-KO mice, FIG. 1B
Text: Spinal cords were dissected out for histology. Intact spinal columns were removed and dissected after fixation in 4% paraformaldehyde, dehydrated and embedding in paraffin. To examine neuroinflammation, the sections were stained with hematoxylin and eosin (H&E). To examine demyelination, the sections were stained with Luxon fast blue plus periodic acid Schiff (LFB-PAS).

In the case of CC(=O)c1ccc2c(c1)C1C=CCC1C(c1cc3c(cc1Br)OCO3)N2 (centres unmarked) [G-1], the “T cell proliferation to mMog-35-55” value [1] is reported as “did not significantly change”, the “abnormalities by H&E staining in liver, eyes, heart, mammary gland, brain, spleen, kidney, muscle or lung” value [2] is reported as “no abnormalities” and the “secretion of IL-17” value ([3]; G-1 1.8 mg/40 day pellet, WT, 25 μg/ml mMog-35-55) is reported as “significantly reduced”. The “production of IFN-γ” value ([3]; G-1 treated WT) was “increased”, the “production of IL-1β” value ([3]; G-1 treated WT) was “did not significantly change” and the “production of IL-5” value ([3]; G-1 treated WT) was “did not significantly change”. The “production of Il-4” value ([3]; G-1 treated WT) was “suppressed”, the “production of Il-6” value ([3]; G-1 treated WT) was “increased” and the “production of Il-12” value ([3]; G-1 treated WT) was “did not significantly change”. The “production of TNF-α” value ([3]; G-1 treated WT) was “did not significantly change”, the “secretion of IL-2” value ([3]; G-1 treated WT) was “significantly reduced” and the “secretion of IL-10” value ([3]; G-1 treated WT) was “increased”.

In the case of C[C@]12CC[C@@H]3c4ccc(O)cc4CC[C@H]3[C@@H]1CC[C@@H]2O [E2, 17β estradiol], the “clinical EAE (in words)” value [4] is reported as “delayed onset and were only partially protected from EAE”, the Daily [5] is reported as 2.6 ± 0.8 and the Incidence [5] is reported as 4/7 and 5/10. The Mortality [5] was 0/7 and 0/10, the Onset [5] was 20.0 ± 1.0 and the “clinical EAE (in words)” value [5] was “delayed onset and were only partially protected from EAE”. The “serum E2 levels” value [6] was 1.5 to 2 ng/mL and the “cellular infiltration and demyelination in CNS” value [7] was “visibly present, but at a reduced level”.
